Literature values as cited in patent US9050341B2, “Methods of treating drug resistant and other tumors by administering 6,7-dialkoxy quinazoline derivatives” (NATCO PHARMA LIMITED, priority 2009, dated 2015).
Counter-ions that a name gives are not always drawn.

Conditions: beagle dogs; source not stated; cited from earlier work

## C#Cc1cccc(Nc2ncnc3cc(OCCOC)c(OCCOC)cc23)c1 [Erlotinib HCl, N-(3-Ethylnylphenyl)-6,7-bis(2-methoxyethoxy)-4-quinazolinamine]
  no observed adverse effect level (NOAEL), corresponding value: 5 mg/kg b.wt/day
